This note sets out measurements from patent publication US12077503B2, “Substituted cyclic amides and their use as herbicides” (FMC CORPORATION, priority 2015, dated 2024).

Usually melting point stands for the temperature, or range, at which the solid turns liquid. For the compound `COc1cccc([C@H]2CNC(=O)[C@@H]2C(=O)Nc2cccc(F)c2F)c1F` [Compound 1061], the melting point lay within 161 to 165 °C.
